Laboratory results as given in patent US20230063457A1, “DNA-PK INHIBITING COMPOUNDS” (Provincial Health Services Authority, priority 2019, published 2023).

These molecules were tested against DNA-PK kinase (Homo sapiens, UniProt P78527) (assay: Inhibition of DNA-PK kinase activity (ADP-Glo)). Conditions: averaged values over all measurements on all batches; 150 μM ATP, 1 hour at 25° C.
Format: biochemical
Protocol: Inhibition of DNA-PK Kinase Activity Assay buffer was 50 mM Hepes pH 7.5 containing 0.1 mg/ml BSA (albumin from bovine serum), 50 μM DTT (dithiothreitol), 20 mM MgCl2 and 10 μg/ml calf thymus DNA (activation buffer). Kinase reaction was carried out in OptiPlate 384 plates (PerkinElmer 6007299). All compounds tested were dissolved in dimethyl sulfoxide (DMSO) and further dilutions were made in assay buffer. Final DMSO concentration was 1% (v/v). Pre-incubation consisted of compound (1% DMSO in control and blank wells) and 24 ng/well DNA-PK kinase to allow the compounds to bind the enzyme (with buffer in the blank wells) for 15 minutes; after this time 150 μM Adenosine-5′-triphosphate (ATP) and 0.2 μg/μl DNA-PK substrate were added to commence the kinase reaction. Incubations were carried out for 1 hour at 25° C. Kinase activity was determined by using ADP-Glo™ reagent from Promega according to the manufacturer's instructions. The light generated was measured using a luminometer (EnVision, PerkinElmer). Signal obtained in the wells containing blank samples was subtracted from all other wells and IC50 values were determined by fitting a sigmoidal curve to % inhibition of control versus Log10 compound concentration.

| Structure (SMILES) | IC50 [nM] |
| --- | --- |
| COc1nc(NCC2CCN(c3nc(N4CCOCC4)cc4ncccc34)CC2)ncc1Cl [Example 124] | 247 |
| O=C(Nc1ncccn1)C1CCN(c2nc(N3CCOCC3)cc3ncccc23)CC1 [Example 26] | 226 |
| c1cnc2cc(N3CCOCC3)nc(N3CCC(CNc4ccncc4)CC3)c2c1 [Example 136] | 340 |
| CC1(CNc2ncccn2)CCN(c2nc(N3CCOCC3)cc3ncccc23)C1 (stereo not shown) [Example 25] | 224 |
| CS(=O)(=O)NCC1CCN(c2nc(N3CCOCC3)cc3ncccc23)CC1 [Parent compound 141] | 370 |
| OCc1ccnc(NCC2CCN(c3nc(N4CCOCC4)cc4ncccc34)CC2)n1 [Example 116] | 124 |
| C[C@H]1CN(c2cc3ncccc3c(O[C@H]3CC[C@@H](c4nc[nH]n4)CC3)n2)CCO1 [Example 68] | 48 |
| c1cnc2cc(N3CCOCC3)nc(OC3CCNCC3)c2c1 [Example 89] | 361 |
| O=C(Nc1ncccn1)N1CCN(c2nc(N3CCOCC3)cc3ncccc23)CC1 [Parent compound 146] | 232 |
| O=C(NC1CCN(c2nc(N3CCOCC3)cc3ncccc23)CC1)c1ncccn1 [Example 27] | 274 |
| COc1cccnc1NCC1CCN(c2nc(N3CCOCC3)cc3ncccc23)CC1 [Example 137] | 457 |
| CC(C)(C)OC(=O)N1CCC(Oc2nc(N3CCOCC3)cc3ncccc23)CC1 [Example 48] | 328 |
| COc1ccc(COc2nc(N3CCOCC3)cc3ncccc23)cc1 [Example 53] | 242 |
| CC(C)(C)OC(=O)NCCC1CCN(c2nc(N3CCOCC3)cc3ncccc23)CC1 [Example 30] | 369 |
| Nc1ccnc(NCC2CCN(c3nc(N4CCOCC4)cc4ncccc34)CC2)n1 [Parent compound 139] | 126 |
| CC(=O)Nc1ccnc(NCC2CCN(c3nc(N4CCOCC4)cc4ncccc34)CC2)n1 [Example 126] | 676 |
| CC(=O)NCC1CCN(c2nc(N3CCOCC3)cc3ncccc23)CC1 [Parent compound 140] | 257 |

| Structure (SMILES) | IC50 [nM] |
| --- | --- |
| c1cnc(NCCC2CCCN(c3nc(N4CCOCC4)cc4ncccc34)C2)nc1 (stereo not shown) [Example 23] | 211 |
| c1cnc2cc(N3CCOCC3)nc(N3CCCCC3)c2c1 [Example 32] | 523 |
| N#Cc1cnc(NCC2CCN(c3nc(N4CCOCC4)cc4ncccc34)CC2)nc1Cl [Example 123] | 232 |
| CN(C)C(=O)N1CC(COc2nc(N3CCOCC3)cc3ncccc23)C1 [Parent compound 149] | 244 |
| Fc1cccnc1NCC1CCN(c2nc(N3CCOCC3)cc3ncccc23)CC1 [Example 135] | 178 |
| C[S+]([O-])[C@H]1CC[C@@H](Oc2nc(N3CCOCC3)cc3ncccc23)CC1 (mixture of isomers) [Example 83] | 169 |
| C[C@@H]1CN(c2ncn[nH]2)CC[C@@H]1Oc1nc(N2CCOCC2)cc2ncccc12 (single isomer, unassigned) [Parent compound 160] | 493 |
| c1cncc(C2CCCCN2c2nc(N3CCOCC3)cc3ncccc23)c1 (stereo not shown) [Example 85] | 2030 |
| NC(=O)N1CCC(Oc2nc(N3CCOCC3)cc3ncccc23)CC1 [Parent compound 147] | 340 |
| c1cnc2cc(N3CCOCC3)nc(N3CCC(c4ncc[nH]4)CC3)c2c1 [Example 86] | 223 |
| c1cnc(NC2CCCN(c3nc(N4CCOCC4)cc4ncccc34)C2)nc1 (stereo not shown) [Example 31] | 492 |
| c1cnc(N2CCC3(C2)CN(c2nc(N4CCOCC4)cc4ncccc24)C3)nc1 [Example 35] | 720 |
| c1cnc(NCCCOc2nc(N3CCOCC3)cc3ncccc23)nc1 [Example 7] | 415 |
| c1cnc(N2CC3(CCN(c4nc(N5CCOCC5)cc5ncccc45)C3)C2)nc1 [Example 34] | 588 |
| CC1CN(c2ncn[nH]2)CCC1Oc1nc(N2CCOCC2)cc2ncccc12 (stereo not shown) [Parent compound 159] | 116 |
| c1cnc(CN2CCC3CN(c4nc(N5CCOCC5)cc5ncccc45)CC32)nc1 (stereo not shown) [Example 42] | 2260 |
| O=C(O)c1ccnc(NCC2CCN(c3nc(N4CCOCC4)cc4ncccc34)CC2)n1 [Example 110] | 88 |
